Measured values reported in US8420100B2, “Tumor suppressor activating polypeptides and uses thereof” (Department of Biotechnology, priority 2006, dated 2013).

Tests used:
[1] = biological target: T1, p53 (serine-15 phosphorylation) (Homo sapiens, UniProt P04637); test: Western blotting for total p53 and phospho serine-15 p53 in peptide-treated HEK 293 cells; assay type: cell-based; settings: HEK 293, TAT-PTD alone 50-100 μM
T1 construct: HEK 293 (p53^+/+) cells; endogenous in cells; host or cells: HEK 293
Protocol: P44 peptide controls the activity of cell cycle regulatory proteins: The minimal dose of P44 peptide that was functionally effective in activating p53 was evaluated by incubating HEK 293 cells with varying concentrations of P44 peptide (1-100 μM) (FIG. 3A) and after 12 h of incubation, protein lysates were prepared and processed for immunoblotting with total p53 (DO-1) and p53 ser-15 phospho-specific antibodies. […] However, there was a 4.5-fold increase in the expression of phosphorylated p53 (pSerine-15 p53) in P44 peptide-treated cells (FIG. 3A, lanes 2-6). To exclude the possibility that p53 activation is an effect of the protein transduction domain of HIV-1 TAT protein, similar set of experiment was performed using TAT-PTD peptide alone (consisting of only the 11-mer TAT-sequence). […] This observation reconfirmed that the RS domain (288-350 aa) of SMAR1 could exclusively activate p53 by mediating its phosphorylation specifically at serine-15 residue. Serine-15 phosphorylation of p53 is associated with its increased transcription efficiency, decreased affinity for MDM2, and its increased nuclear retention. One of the target genes activated by p53 is p21, an inhibitor of a subset of the cyclin-dependent kinases including cdc-2 (Sherr, C. J., and Roberts, J. M. (1999) Genes Dev. 13, 1501-1512). To evaluate the significance of peptide-mediated p53 activation, P44 peptide-treated lysates were further checked for tyrosine 15 phosphorylation of cdc2. […] HEK 293 cells were treated with SM peptide and checked for p53 as well as pcdc-2 levels.
Serine 347 residue of SMAR1: critical for mediating the effects of full-length SMAR1: Once it was established that the serine motif (SSSSYS) plays a pivotal role in SMAR1-mediated p53 activation, it got necessary to identify the serine residue within this motif that might be necessary in mediating these effects. To identify the critical serine residue within P44 peptide, various point-mutant peptides were custom synthesized, that varied with respect to the position of serine residue that was mutated (Table 1). To evaluate the functionality of mutant chimeric TAT-SMAR1 peptides [PS347A, PS348A, PS349A, PS350A and RS mutant (SM)] in comparison to the TAT-SMAR1 WT peptide (P44), HEK 293 cells were treated with 10 μM concentration of either of the peptides and protein lysates were prepared after 12 h incubation period. The lysates were then processed for immunoblotting with pSer-15 p53 and pcdc-2 antibodies. […] However, this was not the case with other mutated peptides. When the alanine was replaced back to serine at the 347 residue (FIG. 4A, lanes 3-5), the functionality of the peptide was restored as observed with increase in pcdc-2 levels. […] However, in case of SM (where serine residues from 347-350 were replaced by alanines) treated cells (FIG. 4A, lane 7), there was no difference in the pSer-15 p53 as well as pcdc-2 levels compared to either untreated or PS347A treated cells (FIG. 4A, lanes 1 and 2, respectively).
FIG. 3. P44 peptide activates p53-mediated cell cycle pathway. A, HEK 293 cells were seeded at a density of 5×10^5 and after 24 h, was incubated with increasing concentrations of the TAT-SMAR1 WT (P44) peptide. Protein lysates were prepared and then immunoblotted with antibodies to total p53, phospho serine-15. B, The same set of experiment was repeated with TAT PTD peptide representing the PTD carrier sequence alone and immunoblotted with phospho serine-15, in comparison of P44 treated cells. C, The status of phospho cdc-2 was further analyzed in P44 peptide treated cells. Total […] was used as an internal control. D, The same set of experiments were again repeated using TAT-SMAR1 RS mutant (SM) peptide and whole cell lysates were probed for phospho p53 serine-15 and pcdc-2 antibodies. […] was used as a loading control.
FIG. 4. Serine 347 residue of SMAR1 mediates p53 activation and stabilization. […]

[2] = test system: B16F1 mouse melanoma cells; test: B16F1 melanoma tumor regression in nude mice; assay type: in vivo; settings: nude mice, 200 μg/mouse thrice a week, 4 weeks
Protocol: P44 peptide: A potent tumor regressor: To test whether the differences in SMAR1 derived peptide-induced activation of p53 translated to differences in drug sensitivity in vivo, B16F1 mouse melanoma cells were subcutaneously grafted into athymic nude mice, and tumor growth together with therapeutic sensitivity was monitored. Once the tumor nodule was established into the mouse, P44 peptide was injected in the tumor localized areas at a physiological dose of 200 μg/mouse thrice a week. The treatment was continued for 4 weeks. In a parallel experiment, either TAT PTD or TAT-SMAR1 RS mutant peptide, SM (FIGS. 6A and B, respectively) was injected in tumor bearing mice to be used as control.
FIG. 6D-F corresponds to the magnified tumor images of FIG. 6A-C, respectively. […] Thus, P44 peptide mimics the function of full-length SMAR1 in drastically reducing the tumor growth.
FIG. 6. Tumor regression by TAT-SMAR1 WT peptide. A, Nude mice were allowed to develop tumors by subcutaneously injecting B 16F1 mouse melanoma cells. Mice with size-matched tumors were then randomized into three treatment groups (five animals per group); TAT PTD alone (panel A), TAT-SMART RS mutant (SM) (panel B) and TAT-SMAR1 WT (P44) (panel C). Panels D, E and F correspond to the magnified images of panels A, B and C, respectively. Mice were treated with either of the peptides at a dose of 200 μg/mice/thrice a week for consecutive 4 weeks. The tumors were then weighed and plotted for each mouse in all the treatment groups (panel G).
Animal model for tumorgenesis: B16F1 mouse melanoma cells in the exponential growth phase were trypsinized (Invitrogen) and washed twice with PBS. Cell number and viability was assessed and cell cultures with viability >90% were used. Tumors were then established in nude mice by subcutaneous injection of 2×10^6 B16F1 cells. Five mice were used in each set of experiments. The mice were maintained under pathogen-free conditions. When the subcutaneous tumor was clearly visible, the TAT-SMAR1 WT (P44) peptide treatment was started. The P44 peptide was subcutaneously injected proximal to the tumor sites at a dose of 200 μg/mouse thrice a week. The treatment was administered for 4 weeks. For control treatment, TAT PTD alone and TAT SMAR1 RS mutant peptide (SM) were injected in the same manner as the P44 peptide.

HIF-1α = test: Immunohistochemical staining of tumor sections for HIF-1α; assay type: in vivo, mouse; settings: tumors excised from treated mice
From the text: (§1) Histopathological changes in the subcutaneous tumors: To analyze the tumor vasculature of TAT PTD, SM treated and P44 treated mice, the tumor sections were stained with HE. […] In SM treated tumors, due to compressed vessels, the shape of RBCs were also distorted (FIG. 7A, lower right panel, arrow marked). […] The presence of hypoxic cells is a hallmark of cancer (Brown, J. M., and Wilson, W. R. (2004) Nat. Rev. Cancer 4, 437-447; Minchinton, A. I., and Tannock, I. F. (2006) Nat. Rev. Cancer 6, 583-592). Cellular responses to hypoxia are triggered by the hypoxia inducible factor-1 alpha (HIF-1α) that is known to restore tissue homeostasis in hypoxic conditions (Semenza, G. L. (2000) Genes Dev. 14, 1983-1991). To determine the status of HIF-1α expression, immunohistochemical analysis was performed on tumor sections obtained from SM and P44 treated mice by using antibody against HIF-1 α. […] All these observations implicate the significance of P44 peptide in restoring tissue architecture in tumor cells and thus potentiates its role as a tumor regressor.
(§2) FIG. 7. Histopathological changes in B16F1-induced tumors. A, Hematoxylin and eosin staining of tumor sections excised from mice treated with either P44 (upper panel) or SM (lower panel) peptide. […] The images have been recorded at 20× and 40×. B, Immunohistochemistry of paraffin embedded tumor sections from P44 treated as well as, SM treated mice. After antigen unmasking, sections were stained with HIF-1α antibody (middle panel) and detected using Cy-3 conjugated mouse immunoglobulin. Sections were counterstained with DAP1 for nuclear localization (left panel). Right panel corresponds to the merged image.
Immunohistochemical staining of tumor sections: Tumor sections in paraffin-embedded blocks were transferred to poly-L-lysine coated glass slides and air-dried overnight at 37° C. They were dewaxed in xylene (three changes) and […] in graded series of decreasing ethanol concentrations. […] Thereafter, detected using cy-3 fluorescence labeled secondary antibody. […]

[3] = test system: tumor vasculature of B16F1-induced tumors; test: Hematoxylin and eosin histopathology of B16F1-induced tumors; assay type: in vivo, mouse; settings: tumors excised from treated mice
From the text: as §1, §2

T1 sequence (P04637 whole entry): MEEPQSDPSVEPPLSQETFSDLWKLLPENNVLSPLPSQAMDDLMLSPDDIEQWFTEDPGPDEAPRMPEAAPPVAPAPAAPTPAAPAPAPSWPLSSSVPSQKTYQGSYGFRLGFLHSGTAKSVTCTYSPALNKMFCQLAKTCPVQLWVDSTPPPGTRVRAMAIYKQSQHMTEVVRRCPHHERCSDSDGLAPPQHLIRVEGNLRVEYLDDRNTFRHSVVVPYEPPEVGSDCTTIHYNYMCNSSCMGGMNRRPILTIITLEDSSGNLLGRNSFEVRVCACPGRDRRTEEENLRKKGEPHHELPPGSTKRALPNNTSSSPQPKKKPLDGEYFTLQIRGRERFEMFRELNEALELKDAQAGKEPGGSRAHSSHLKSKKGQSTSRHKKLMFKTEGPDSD

YGRKKRRQRRR [TAT PTD, reference compound]
phosphorylation of serine-15 residue of p53 [1]: no phosphorylation | tumor weight after excision [2]: 1.5 to 3 g | HIF-1α expression in tumor sections (HIF-1α): increased expression of HIF-1α | tumor vascular architecture (HE staining) [3]: poorly organized vascular architecture and compressed blood vessels
